The test system of assay [1] is human pancreatic cancer cell line MiaPaCa2 (ATCC CRL-1420). Kind of assay: Cell growth assay (CellTiterGlo, 72 hours). As to conditions: for IC50: MIA PaCa-2, MiaPaCa2 cells, 72 hours, read-out: IC50 MiaPaCa; for inhibition at 100 µM: MIA PaCa-2, at 100 μM; for inhibition at 100 µM / inhibition at 50 µM: read-out: Inhibition of MiaPaCa growth at indicated concentration; for inhibition at 50 µM: MIA PaCa-2, at 50 μM. The assay is classed as cell-based. As to the method:
The inhibition of cell growth by the compounds was tested by exposing the human pancreatic cancer cell line MiaPaCa2 (ATCC CRL-1420) to the compounds. The assay was performed in 384 well clear bottom white microtiter plates (Greiner #781098). Each well was seeded with 10^3 cells in 20 μl of Dulbecco's modified Eagle's medium (Sigma D6796) supplied with 10% fetal calf scrum (Sigma F7524), 2.5% horse serum (Sigma H0146), 1% Penicillin-Streptomycin (Sigma P0781), 1% MEM nonessential amino acid solution 100× (Sigma M71459) and 1% 200 mM L-Glutamine (Sigma G7513) culture medium. After overnight incubation at 37° C. in 5% CO2 the compounds were added in the following concentrations: 100, 50, 20, 10, 5, 2, 1, 0.5, 0.2 and 0.1 μM. Each compound concentration was tested in quadruplicate. The incubation was then continued for 72 hours. After 72 hours the growth of the cells was assessed by the addition of the CellTiterGlo reagent (Promega G9242) as instructed by the provider. The luminescent signal was recorded on a SpectraMax M2 microplate reader. The signal obtained in wells containing cells cultivated in the absence of compound was set to 100% growth after subtracting the signal obtained in medium only wells. The % growth in each well was calculated by subtracting the medium only value and dividing through the 100% growth value. The IC50 for cell growth, the concentration of compound at which cell growth was reduced to 50%, was calculated with the GraFit6 software (Erythacus software).
A general note: Cellular ATP, detected with luciferase, serves as a proxy for viable cell number.

In a further assay the target is T1, MNK1 (Homo sapiens, UniProt Q9BUB5).
T1 construct: purchased Life Technologies or Carna Biosciences PV6023 or 02-145; host or cells: baculovirus infected insect cells
T1 sequence (Q9BUB5 whole entry): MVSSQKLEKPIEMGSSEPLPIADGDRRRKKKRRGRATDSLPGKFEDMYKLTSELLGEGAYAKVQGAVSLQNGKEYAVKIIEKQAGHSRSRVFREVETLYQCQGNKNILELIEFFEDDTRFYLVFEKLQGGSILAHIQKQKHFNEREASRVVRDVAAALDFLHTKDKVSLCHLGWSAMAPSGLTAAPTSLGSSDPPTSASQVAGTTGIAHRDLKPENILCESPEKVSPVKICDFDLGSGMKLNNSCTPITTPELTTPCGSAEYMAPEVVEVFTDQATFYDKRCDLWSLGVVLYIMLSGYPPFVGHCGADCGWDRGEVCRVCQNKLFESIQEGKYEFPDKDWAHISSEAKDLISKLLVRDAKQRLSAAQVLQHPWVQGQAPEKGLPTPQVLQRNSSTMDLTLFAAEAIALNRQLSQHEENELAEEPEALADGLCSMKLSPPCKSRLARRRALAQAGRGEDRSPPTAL
In words: MNK inhibition assay (Z-Lyte kinase assay, Ser/Thr 7 peptide). Format: biochemical. The conditions noted are these: for IC50: recombinant GST-MNK1, 3 hours at 31° C. The text has this: For the measurement of the activity of the MNK1 kinase the Z-Lyte kinase assay system was used. The kinase activity of MNK1 can be quantified with the Z-Lyte kinase assay kit Ser/Thr 7 peptide (Life Technologies PV3180). The kit was utilized according to the instructions of the provider. A recombinant GST-MNK1 fusion protein produced in and purified from baculovirus infected insect cells was used as enzyme source (GST-MNK1 Life Technologies PV6023 or Carna Biosciences 02-145). It was verified that both sources of the MNK1 enzyme gave similar IC50 values with several compounds. The MNK1 enzyme assay was performed in 384 well round bottom black microtiter plates (Corning 3676). The kinase reaction was performed for 3 hours at 31° C. As instructed by the provider of the kit the amount of enzyme was chosen such that ˜30% of the substrate peptide was phosphorylated in control wells containing buffer only. The MNK1 inhibiting activity of compounds was tested by adding the compounds to the kinase reaction at a concentration of 10000, 5000, 2000, 1000, 500, 200, 100, 50 nM. Compounds with strong MNK1 inhibition were tested at 20, 10, 5, 2, 1 and 0.5 nM in addition. Each compound concentration was tested at least in duplicate. The % phosphorylation of the substrate peptide at each compound concentration was calculated as described in the assay manual. The fluorescent signals were recordes on Biotek Cytation 3 microplate reader. The IC50, the concentration that reduced substrate phosphorylation by 50% if compared to buffer only wells, was calculated with the Grafit 6 software (Erythacus software).

Where [2] appears, read: read-out: Inhibition of MNK1 activity at indicated concentration.

The IC50 is the concentration needed to halve the response being measured. Regarding `Nc1ccc(NCc2ccc3cncc(-c4cc5ccccc5o4)c3c2)cc1` [Example 50], the figures for the IC50 (in assay [1]; on MNK1) were 5590 nM and 384 nM, respectively.

For `NCc1ccccc1NCc1ccc2cncc(-c3cc4ccccc4o3)c2c1` [Example 51, 2-(Aminomethyl)-N-[[4-(benzofuran-2-yl)-6-isoquinolyl]methyl]aniline], the IC50 in assay [1] was determined as 6340 nM; on MNK1, 4220 nM.

As for `NCc1ccc(NCc2ccc3cncc(-c4cc5ccccc5o4)c3c2)cc1` [Example 52], the values for the IC50 (in assay [1]; at MNK1) were 14100 nM and 163 nM, respectively.

For `NCc1cccc(NCc2ccc3cncc(-c4cc5ccccc5o4)c3c2)c1` [Example 53], the IC50 in assay [1] worked out at 18600 nM; at MNK1, 580 nM.

As to `Nc1cc[n+](Cc2ccc3cncc(-c4cc5ccccc5o4)c3c2)c2ccccc12` [Example 54, 1-[[4-(Benzofuran-2-yl)-6-isoquinolyl]methyl]quinolin-1-ium-4-amine], the IC50 in assay [1] was found to be 2850 nM; at MNK1, 15 nM.

As for `Nc1cc[n+](Cc2ccc3cncc(-c4cc5ccccc5o4)c3c2)cc1` [Example 55], the IC50 in assay [1] worked out at 1830 nM; on MNK1, 14 nM.

As to `Nc1ccc[n+](Cc2ccc3cncc(-c4cc5ccccc5o4)c3c2)c1` [Example 56], the inhibition at 100 µM in assay [1] stood at 85%. Further, at MNK1, the IC50 came out at 143 nM.

In the case of `Cc1c[n+](Cc2ccc3cncc(-c4cc5ccccc5o4)c3c2)ccc1N` [Example 57], the IC50 in assay [1] stood at 3370 nM; on MNK1 it was 7.9 nM.

Take `Nc1cc[n+](Cc2ccc3cncc(-c4cc5ccccc5o4)c3c2)cc1C(F)(F)F` [Example 58]: the results for the IC50 (in assay [1]; on MNK1) were 13600 nM and 50 nM, respectively.

`Nc1cc[n+](Cc2ccc3cncc(-c4cc5ccccc5o4)c3c2)cc1O` [Example 59]: the IC50 in assay [1] is 47000 nM; on MNK1 it was 90 nM.

Regarding `c1ccc2oc(-c3cncc4ccc(CNc5ccncc5)cc34)cc2c1` [Example 61], the half-inhibitory concentration (IC50) in assay [1] amounted to 5250 nM; on MNK1, 3 nM.

For the compound `FC(F)(F)c1cc(NCc2ccc3cncc(-c4cc5ccccc5o4)c3c2)ccn1` [Example 64], the IC50 in assay [1] is 14800 nM. For the same compound, on MNK1 (setting [2]), the inhibition at 10 µM is 41%.

Consider `CN(Cc1ccc2cncc(-c3cc4ccccc4o3)c2c1)c1ccncc1` [Example 67], for which the IC50 in assay [1] came out at 5580 nM; at MNK1, 57 nM.

As for `CN(C)c1cc(NCc2ccc3cncc(-c4cc5ccccc5o4)c3c2)ccn1` [Example 68], the IC50 in assay [1] is 6190 nM; on MNK1, 45 nM.

Regarding `Cc1cnccc1NCc1ccc2cncc(-c3cc4ccccc4o3)c2c1` [Example 69], the results for the IC50 (in assay [1]; at MNK1) were 7000 nM and 17 nM, respectively.

Take `Fc1cnccc1NCc1ccc2cncc(-c3cc4ccccc4o3)c2c1` [Example 70]: the IC50 in assay [1] was determined as 12200 nM; on MNK1 it was 32 nM.

On to `Clc1cnccc1NCc1ccc2cncc(-c3cc4ccccc4o3)c2c1` [Example 71], for which the IC50 in assay [1] stood at 10300 nM; on MNK1, 128 nM.

For the compound `COc1cnccc1NCc1ccc2cncc(-c3cc4ccccc4o3)c2c1` [Example 72], the IC50 worked out at 5080 nM in assay [1] and 12 nM at MNK1.

Consider `Oc1cnccc1NCc1ccc2cncc(-c3cc4ccccc4o3)c2c1` [Example 73], for which the IC50 in assay [1] was found to be 15000 nM; on MNK1 it was 5 nM.

For the compound `O=c1cc(NCc2ccc3cncc(-c4cc5ccccc5o4)c3c2)cc[nH]1` [Example 74], the IC50 was found to be 19200 nM in assay [1] and 5.3 nM on MNK1.

Consider `O=[N+]([O-])c1cnccc1NCc1ccc2cncc(-c3cc4ccccc4o3)c2c1` [Example 75, N-[[4-(Benzofuran-2-yl)-6-isoquinolyl]methyl]-3-nitro-pyridin-4-amine], for which the IC50 in assay [1] is 18000 nM; at MNK1 it was 2130 nM.

For the compound `Nc1cnccc1NCc1ccc2cncc(-c3cc4ccccc4o3)c2c1` [Example 76, N4-[[4-(Benzofuran-2-yl)-6-isoquinolyl]methyl]pyridine-3,4-diamine], the IC50 in assay [1] worked out at 4750 nM; at MNK1 it was 5.9 nM.

For `FC(F)(F)c1cnccc1NCc1ccc2cncc(-c3cc4ccccc4o3)c2c1` [Example 77], the IC50 was found to be 10000 nM in assay [1] and 1130 nM on MNK1.

In the case of `c1ccc2oc(-c3cncc4ccc(OC5CCNCC5)cc34)cc2c1` [Example 78, 4-(Benzofuran-2-yl)-6-(4-piperidyloxy)isoquinoline], the figures for the IC50 (in assay [1]; at MNK1) were 3460 nM and 208 nM, respectively.

For the compound `N[C@H]1CC[C@H](Oc2ccc3cncc(-c4cc5ccccc5o4)c3c2)CC1` [Example 79, 4-[[4-(Benzofuran-2-yl)-6-isoquinolyl]oxy]cyclohexanamine], the values for the IC50 (in assay [1]; at MNK1) were 4720 nM and 401 nM, respectively.

As to `N[C@H]1CC[C@@H](Oc2ccc3cncc(-c4cc5ccccc5o4)c3c2)CC1` [Example 80], the figures for the IC50 (in assay [1]; at MNK1) were 3550 nM and 675 nM, respectively.

With `c1ccc(-c2cnnc3ccc(CN4CCNCC4)cc23)cc1` [Example 83, 4-Phenyl-6-(piperazin-1-ylmethyl)cinnoline], the inhibition at 100 µM in assay [1] is 31%. Moreover, at MNK1 (setting [2]), the inhibition at 10 µM amounted to 54%.

Take `NC1CCN(Cc2ccc3nncc(-c4ccccc4)c3c2)CC1` [Example 84]: the inhibition at 100 µM in assay [1] turned out to be 33%. Moreover, the IC50 at MNK1 is 3730 nM.

On to `Oc1ccc(-c2cnnc3ccc(CN4CCNCC4)cc23)cc1` [Example 85], for which the inhibition at 100 µM in assay [1] is 33%. Further, the IC50 on MNK1 came to 318 nM.

`NC1CCN(Cc2ccc3nncc(-c4ccc(O)cc4)c3c2)CC1` [Example 86]: the inhibition at 100 µM in assay [1] came out at 50%. For the same compound, the IC50 on MNK1 was 174 nM.

In the case of `N[C@H]1CC[C@H](Nc2ccc3c(=O)[nH]cc(-c4cc5ccccc5o4)c3c2)CC1` [Example 87, 6-[(4-Aminocyclohexyl)amino]-4-(benzofuran-2-yl)-2H-isoquinolin-1-one], the figures for the IC50 (in assay [1]; at MNK1) were 4470 nM and 1980 nM, respectively.

Consider `Nc1ncc(-c2ccccc2)c2cc(CN3CCNCC3)ccc12` [Example 91, 4-Phenyl-6-(piperazin-1-ylmethyl)isoquinolin-1-amine], for which the results for the IC50 (in assay [1]; on MNK1) were 11300 nM and 476 nM, respectively.

On to `Nc1ncc(-c2ccccc2)c2cc(CN3CCC(N)CC3)ccc12` [Example 92], for which the figures for the IC50 (in assay [1]; at MNK1) were 7200 nM and 577 nM, respectively.

As for `Nc1ncc(-c2ccc(O)cc2)c2cc(CN3CCNCC3)ccc12` [Example 93], in assay [1], the inhibition at 50 µM amounted to 27%. In addition, the IC50 at MNK1 came to 197 nM.

Take `Nc1ncc(-c2ccc(O)cc2)c2cc(CN3CCC(N)CC3)ccc12` [Example 94]: in assay [1], the inhibition at 50 µM stood at 27%. Moreover, the IC50 at MNK1 was determined as 221 nM.

Regarding `CN(C)CCOc1ccc2cncc(-c3cc4ccccc4o3)c2c1` [Example 95, 2-[[4-(Benzofuran-2-yl)-6-isoquinolyl]oxy]-N,N-dimethyl-ethanamine], the IC50 in assay [1] is 8380 nM; at MNK1 it was 1730 nM.

On to `Cn1nccc1Oc1ccc2cncc(-c3cc4ccccc4o3)c2c1` [Example 96], for which the IC50 in assay [1] amounted to 6140 nM; at MNK1, 3990 nM.

As for `Cn1nccc1OCc1ccc2cncc(-c3cc4ccccc4o3)c2c1` [Example 97, 4-(Benzofuran-2-yl)-6-[(2-methylpyrazol-3-yl)oxymethyl]isoquinoline], the IC50 in assay [1] came out at 10800 nM; at MNK1, 397 nM.

Regarding `Cn1nccc1Nc1ccc2cncc(-c3cc4ccccc4o3)c2c1` [Example 98, 4-(Benzofuran-2-yl)-N-(2-methylpyrazol-3-yl)isoquinolin-6-amine], in assay [1], the IC50 was determined as 9880 nM. On MNK1 (at 1 μM, read-out: Inhibition of MNK1 activity at indicated concentration), the inhibition at 1 µM amounted to 40%.

The record behind these values is patent publication US20200031811A1, “SUBSTITUTED MONO- AND POLYAZANAPHTHALENE DERIVATIVES AND THEIR USE” (Basilea Pharmaceutica International AG, priority 2015, published 2020).
